In patent US20240317683A1, “METHODS OF TREATING MOOD DISORDERS” (priority 2020, published 2024):
Entries after “also recorded” stand apart in the source; their conditions may differ. Structures can show the parent of a compound that is named as a salt.

Assays:
Format in all cases: in vivo
[1] = test system: C57BL/6 mice; assay: Conditioned place preference in mice; settings: SC, abuse liability model, vs. vehicle; hydrochloride
Method: (§1) Animals. Male C57BL/6 mice, 5-8 weeks of age, (body weight 25-30 g; Envigo, Indianapolis, IN, USA) were housed 5 per polycarbonate tub with soft bedding in a temperature-and humidity-controlled vivarium. Mice were maintained under a 12-h light/dark cycle with lights on at 06:00. Food and water were available ad libitum. Animals acclimated to the vivarium for 1 week prior to experimental manipulations.
Drugs and Drug Administration. Compound 4 was prepared as described above. All other compounds were commercially obtained. Compound 4 and saline vehicle were administered subcutaneously (SC), with doses calculated based on the HCl salt, while the positive control oxycodone was administered intraperitoneally (IP), with the dose calculated based on the HCl salt. […]
Conditioned Place Preference. Reward and/or aversion was assessed in conditioned place preference chambers (Model MED-CPP-3013; Med Associates, St. Albans, VT). […]
Group size was n=10 per treatment. […] Final drug preference was assessed in a 15-minute post-conditioning trial and was calculated by subtracting the time in the drug-paired compartment at baseline from the time in the drug-paired compartment post-conditioning, with positive values reflecting reward and negative values reflecting aversion.
For all trials, time spent in chambers as well as movement was quantified by infrared photobeam detectors and calculated by Med-PC IV software. […]

[2] = test system: C57BL/6 mice; assay: Open field locomotor activity in mice; settings: SC
Method: as §1
Drugs and Drug Administration. Compound 4 was prepared as described above. Compound 4 and saline vehicle were administered subcutaneously (SC), with doses calculated based on the HCl salt. Normal saline was used as the vehicle. All compounds were administered at a volume of 10 mL/kg. Compound 4 or vehicle were administered immediately before the start of the recording session.
Locomotor Activity. Locomotor activity was measured in experimental cages (length×width x height: 560×560×330 mm) by an animal movement analysis system SCANET MV-40 ([…] Co., Ltd., Toyama, Japan). The cumulative activity was recorded for 30 minutes prior to drug administration to establish a baseline, and then animals were recorded for 60 minutes immediately after drug administration. Cages were cleaned between testing sessions.
Statistical Analysis. The total number of beam breaks were summed into 5-minute time bins. The data points shown are the mean ±standard error of the mean (SEM). […]

[3] = test system: C57BL/6 mice; assay: Marble burying test (MBT) in mice; settings: SC, 30 minutes prior, 30-minute period, vs. vehicle
Method: Animals. Adult male C57BL/6 mice, aged 8-10 weeks (body weight 20-25 g), were used in these experiments. Animals were housed under controlled temperatures and 12-hour light/dark cycles (lights on between 07:00-19:00 h), with ad libitum food and water. All efforts were made to minimize suffering.
Drugs and Drug Administration. Compound 4 was prepared as described above. Desipramine HCl was commercially obtained. The test compound, vehicle, and the positive control desipramine were administered subcutaneously (SC), with doses calculated based on the freebase. Normal saline was used as the vehicle. All compounds were administered at a volume of 10 ml/kg. All treatments were administered 30 minutes prior to the start of behavioral testing. Group size was n=9-10 per treatment.
Marble Burying Test (MBT). […] Mice were handled for about 2 min daily for the 3 days prior to the beginning of the experimental procedure. Twenty glass marbles (16 mm diameter) were placed at equal distances in a 5×4 pattern on a 5-cm layer of corn-cob bedding, with marbles at least 2 cm from the borders of the cage. The total number of marbles buried were counted in three 10-minute time bins (total 30 minutes). A marble was considered buried when it was >⅔ covered by bedding material.
Statistical Analysis. The data points shown are the mean ±standard error of the mean (SEM). Analysis was performed using GraphPad Prism 6. […]

CCN(C)CCc1c[nH]c2ccc(F)cc12 [Compound 4, N-ethyl-2-(5-fluoro-1H-indol-3-yl)-N-methylethan-1-amine hydrochloride]
preference for the drug-paired compartment [1]: did not induce any significant preference; also recorded: not significantly different from vehicle
total locomotor activity in the open field ([2]; 60 minutes after administration): dose-dependent decrease
locomotor activity, highest dose group ([2]; highest dose group): near complete reduction in activity
number of marbles buried [3]: dose-dependent reduction
